From ChEMBL document CHEMBL1137038, “7-Substituted 2-phenyl-benzofurans as ER beta selective ligands” (Bioorg Med Chem Lett, 2004)

Molecular target: T1, Estrogen receptor (Homo sapiens, UniProt P03372)
T1 sequence (P03372 whole entry): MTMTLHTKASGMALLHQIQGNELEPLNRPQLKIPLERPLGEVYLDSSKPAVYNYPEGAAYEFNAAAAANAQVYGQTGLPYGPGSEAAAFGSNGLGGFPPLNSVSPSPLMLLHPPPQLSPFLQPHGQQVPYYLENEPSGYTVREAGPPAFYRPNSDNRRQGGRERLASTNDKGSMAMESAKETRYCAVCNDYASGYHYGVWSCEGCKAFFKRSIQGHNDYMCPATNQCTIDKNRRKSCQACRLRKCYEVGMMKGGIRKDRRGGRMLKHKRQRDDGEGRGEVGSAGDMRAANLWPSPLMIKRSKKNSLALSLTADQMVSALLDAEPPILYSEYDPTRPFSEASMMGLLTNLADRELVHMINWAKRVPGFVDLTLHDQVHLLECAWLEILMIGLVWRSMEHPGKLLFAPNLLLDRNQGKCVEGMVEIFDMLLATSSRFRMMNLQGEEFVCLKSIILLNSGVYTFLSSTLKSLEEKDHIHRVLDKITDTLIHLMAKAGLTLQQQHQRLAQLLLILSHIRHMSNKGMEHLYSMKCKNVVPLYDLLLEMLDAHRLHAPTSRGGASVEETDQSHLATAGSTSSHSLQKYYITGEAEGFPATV
Description: Binding affinity for human Estrogen receptor alpha

| IC50 | SMILES |
| --- | --- |
| 990 nM | COc1cc(O)cc2cc(-c3ccc(O)c(F)c3)oc12 |
| 335 nM | COc1cc(O)c(Br)c2cc(-c3ccc(O)c(F)c3)oc12 |
